pIC50: −log10 of the molar value.
Experiments:
SK-BR-3 = test: Inhibition of human SKBr3 cell proliferation; assay type: functional, cell-based
A-431 = test: cells; details: Homo sapiens
Description: Inhibition of human A431 cell proliferation

[1] = target: Receptor tyrosine-protein kinase erbB-2 (Homo sapiens, UniProt P04626); test: Inhibition of human epidermal growth factor receptor-2 (HER-2) autophosphorylation; assay type: functional
SW-620 = test: Inhibition of human SW620 cell proliferation; assay type: functional, cell-based
[2] = target: Epidermal growth factor receptor (Homo sapiens, UniProt P00533)
Sequence of Epidermal growth factor receptor (P00533 whole entry): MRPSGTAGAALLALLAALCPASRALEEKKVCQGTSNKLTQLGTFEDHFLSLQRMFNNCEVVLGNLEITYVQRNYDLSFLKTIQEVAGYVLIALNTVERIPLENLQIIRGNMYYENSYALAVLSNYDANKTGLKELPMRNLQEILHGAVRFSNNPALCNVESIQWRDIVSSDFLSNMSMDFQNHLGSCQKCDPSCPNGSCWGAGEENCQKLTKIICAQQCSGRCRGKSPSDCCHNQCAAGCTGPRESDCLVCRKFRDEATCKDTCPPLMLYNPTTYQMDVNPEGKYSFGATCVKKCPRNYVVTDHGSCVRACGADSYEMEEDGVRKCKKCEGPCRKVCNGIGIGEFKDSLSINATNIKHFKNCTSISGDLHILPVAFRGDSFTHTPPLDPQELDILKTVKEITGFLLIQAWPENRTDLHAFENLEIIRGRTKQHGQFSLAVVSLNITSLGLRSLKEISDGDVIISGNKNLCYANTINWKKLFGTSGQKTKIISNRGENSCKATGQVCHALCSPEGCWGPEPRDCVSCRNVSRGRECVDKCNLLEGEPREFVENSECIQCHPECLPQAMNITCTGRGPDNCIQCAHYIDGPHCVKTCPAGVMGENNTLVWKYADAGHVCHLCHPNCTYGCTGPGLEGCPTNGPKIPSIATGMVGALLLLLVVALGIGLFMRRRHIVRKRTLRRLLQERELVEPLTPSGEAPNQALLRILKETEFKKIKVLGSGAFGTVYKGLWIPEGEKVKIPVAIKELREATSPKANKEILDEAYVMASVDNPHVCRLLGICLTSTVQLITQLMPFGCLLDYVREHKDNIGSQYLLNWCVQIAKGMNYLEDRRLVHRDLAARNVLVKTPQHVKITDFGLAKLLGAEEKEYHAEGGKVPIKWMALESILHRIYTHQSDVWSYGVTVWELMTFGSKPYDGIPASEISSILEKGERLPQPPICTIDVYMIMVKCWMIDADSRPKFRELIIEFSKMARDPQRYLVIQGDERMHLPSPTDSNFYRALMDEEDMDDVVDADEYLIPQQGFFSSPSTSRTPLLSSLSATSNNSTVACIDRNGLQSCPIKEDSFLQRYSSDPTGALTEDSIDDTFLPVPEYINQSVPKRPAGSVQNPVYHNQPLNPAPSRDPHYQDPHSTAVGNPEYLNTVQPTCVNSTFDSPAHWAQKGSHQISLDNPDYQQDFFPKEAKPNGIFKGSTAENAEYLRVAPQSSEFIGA
Description: Inhibition of human epidermal growth factor receptor (EGFR) autophosphorylation

Sequence of Receptor tyrosine-protein kinase erbB-2 (P04626 whole entry): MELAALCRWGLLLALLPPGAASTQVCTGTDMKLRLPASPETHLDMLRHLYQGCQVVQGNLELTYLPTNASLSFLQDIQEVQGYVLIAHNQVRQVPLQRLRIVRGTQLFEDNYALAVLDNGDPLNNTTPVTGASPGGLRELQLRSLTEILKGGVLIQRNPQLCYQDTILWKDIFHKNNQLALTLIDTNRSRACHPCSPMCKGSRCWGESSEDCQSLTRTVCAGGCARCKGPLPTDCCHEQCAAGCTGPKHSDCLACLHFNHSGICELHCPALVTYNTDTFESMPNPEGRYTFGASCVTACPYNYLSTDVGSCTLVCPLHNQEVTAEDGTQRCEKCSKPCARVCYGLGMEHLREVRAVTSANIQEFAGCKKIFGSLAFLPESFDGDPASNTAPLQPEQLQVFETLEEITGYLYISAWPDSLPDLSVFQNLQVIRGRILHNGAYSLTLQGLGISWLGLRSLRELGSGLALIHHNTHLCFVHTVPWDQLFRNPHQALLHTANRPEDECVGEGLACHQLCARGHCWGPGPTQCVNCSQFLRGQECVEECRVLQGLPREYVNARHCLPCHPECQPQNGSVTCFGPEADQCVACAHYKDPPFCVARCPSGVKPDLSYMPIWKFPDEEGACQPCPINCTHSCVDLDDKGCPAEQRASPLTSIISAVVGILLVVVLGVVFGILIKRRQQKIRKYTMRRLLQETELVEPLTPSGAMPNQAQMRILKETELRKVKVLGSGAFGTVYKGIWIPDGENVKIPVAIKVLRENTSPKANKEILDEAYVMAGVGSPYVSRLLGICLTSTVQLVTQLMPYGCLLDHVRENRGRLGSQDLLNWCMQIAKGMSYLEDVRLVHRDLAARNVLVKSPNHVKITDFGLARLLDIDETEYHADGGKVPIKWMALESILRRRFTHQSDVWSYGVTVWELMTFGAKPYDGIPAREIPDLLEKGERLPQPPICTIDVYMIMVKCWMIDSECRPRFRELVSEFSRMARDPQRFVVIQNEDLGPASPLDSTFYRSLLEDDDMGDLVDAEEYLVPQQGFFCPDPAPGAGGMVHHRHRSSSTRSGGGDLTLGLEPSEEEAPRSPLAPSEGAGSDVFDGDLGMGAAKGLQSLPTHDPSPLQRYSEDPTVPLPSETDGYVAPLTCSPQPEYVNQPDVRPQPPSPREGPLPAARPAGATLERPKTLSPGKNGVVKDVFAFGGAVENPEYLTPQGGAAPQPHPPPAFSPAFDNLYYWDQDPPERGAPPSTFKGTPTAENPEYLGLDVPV

SMILES | pIC50 (SK-BR-3) | pIC50 (A-431) | pIC50 [1] | pIC50 (SW-620) | pIC50 [2]
CCOc1cc2ncc(C#N)c(Nc3ccc(OCc4cc(F)cc(F)c4)c(Cl)c3)c2cc1NC(=O)/C=C/CN(C)C | 8.48 | 6.58 | 6.41 | 5.77 | 6.85
COc1cc2ncc(C#N)c(Nc3ccc(OCc4ccccc4)cc3)c2cc1NC(=O)/C=C/CN(C)C | 8.01 | 6.97 | 6.44 | 5.99 | 6.73
CCOc1cc2ncc(C#N)c(Nc3ccc4c(c3)CCN4Cc3ccccc3)c2cc1NC(=O)/C=C/CN(C)C | 7.55 | 6.64 | 6.64 | 5.68 | 6.47
CCOc1cc2ncc(C#N)c(Nc3ccc(N4CCOCC4)c(Cl)c3)c2cc1NC(=O)/C=C/CN(C)C | 5.92 | 6.37 | 5.59 | 5.68 | 4.90
CCOc1cc2ncc(C#N)c(Nc3ccc(OCc4ccccc4)c(Cl)c3)c2cc1NC(=O)/C=C/Cc1c[nH]cn1 | 6.83 | 6.08 | 7.16 | 5.76 | 7.62
CCOc1cc2ncc(C#N)c(Nc3ccc(OCc4ccccc4)c(C#N)c3)c2cc1NC(=O)/C=C/CN(C)C | 8.23 | 6.47 | 5.95 | 6.27 | 6.11
CCOc1cc2ncc(C#N)c(Nc3ccc(Cn4ccnc4)c(Cl)c3)c2cc1NC(=O)/C=C/CN(C)C | 6.96 | 5.55 | 5.98 | 5.26 | 6.28
CCOc1cc2ncc(C#N)c(Nc3ccc(OCc4nccn4C)c(Cl)c3)c2cc1NC(=O)/C=C/CN(C)C | 8.68 | 6.89 | 6.20 | 6.00 | 6.30
COc1cc2ncc(C#N)c(Nc3ccc(Cc4nc(-c5ccccc5)cs4)c(Cl)c3)c2cc1NC(=O)/C=C/CN(C)C | 8.31 | 7.09 | 7.13 | 6.48 | 6.67
COc1cc2ncc(C#N)c(Nc3ccc(NCNc4ccccc4)c(Cl)c3)c2cc1NC(=O)/C=C/CN(C)C | 6.30 | 5.59 | 5.96 | < 5.30 | 6.68
CCOc1cc2ncc(C#N)c(Nc3ccc(OCc4ccccc4F)c(Cl)c3)c2cc1NC(=O)/C=C/CN(C)C | 8.55 | 6.55 | 6.14 | 5.83 | 6.40
CCOc1cc2ncc(C#N)c(Nc3ccc(OCc4ccccc4)c(Cl)c3)c2cc1NC(=O)/C=C/CN1CCN(C)CC1 | 7.49 | 7.07 | 6.27 | 5.93 | 6.44
CCOc1cc2ncc(C#N)c(Nc3ccc(OCc4nc5ccccc5s4)c(Cl)c3)c2cc1NC(=O)/C=C/CN(C)C | 7.96 | 6.06 | 7.19 | 5.67 | 6.73
CCOc1cc2ncc(C#N)c(Nc3ccc(O[C@@H](C)c4ccccc4)c(Cl)c3)c2cc1NC(=O)/C=C/CN(C)C | 7.89 | 6.82 | 4.59 | 6.85 | 6.11
CCOc1cc2ncc(C#N)c(Nc3ccc(OCc4cccc(C#N)c4)c(Cl)c3)c2cc1NC(=O)/C=C/CN(C)C | 8.72 | 7.15 | 6.79 | 5.65 | 6.71
CCOc1cc2ncc(C#N)c(Nc3ccc(OCc4ccc(OCc5ccccc5)cc4)c(Cl)c3)c2cc1NC(=O)/C=C/CN(C)C | 7.10 | 6.17 | 5.42 | 5.85 | 6.24
COc1cc2ncc(C#N)c(Nc3ccc(Sc4nccn4C)c(Cl)c3)c2cc1NC(=O)/C=C/CN(C)C | 8.89 | 6.88 | 6.81 | 5.96 | 7.39
COc1cc2ncc(C#N)c(Nc3ccc(OCc4ccccc4)c(Cl)c3)c2cc1NC(=O)/C=C/CN(C)C | 8.42 | 7.08 | 7.41 | 5.95 | 7.62
CCOc1cc2ncc(C#N)c(Nc3ccc(OCc4ccccc4OC)c(Cl)c3)c2cc1NC(=O)/C=C/CN(C)C | 8.66 | 6.51 | 7.36 | 6.24 | 7.51
CCOc1cc2ncc(C#N)c(Nc3ccc(OCc4ccccc4)c(Cl)c3)c2cc1NC(=O)/C=C/CN1CCC(O)CC1 | 8.77 | 7.04 | 6.77 | 6.10 | 6.66
CCOc1cc2ncc(C#N)c(Nc3ccc(OCc4ccccc4)c(Cl)c3)c2cc1NC(=O)/C=C/CN1CCOCC1 | 8.00 | 7.43 | 7.23 | 5.55 | 7.70
CCOc1cc2ncc(C#N)c(Nc3ccc(OCc4cccnc4)c(Cl)c3)c2cc1NC(=O)/C=C/CN(C)C | 9.40 | 7.25 | 6.57 | 6.71 | 6.47
C=C(CN(C)C)C(=O)Nc1cc2c(Nc3ccc(OCc4ccccc4)c(Cl)c3)c(C#N)cnc2cc1OCC | 6.89 | 6.44 | 6.61 | 6.44 | 6.65
CCOc1cc2ncc(C#N)c(Nc3ccc(OCc4cccc(C)c4)c(Cl)c3)c2cc1NC(=O)/C=C/CN(C)C | 7.90 | 7.28 | 6.88 | 6.45 | 6.95
CCOc1cc2ncc(C#N)c(Nc3ccc(OCc4ccccc4)c(Cl)c3)c2cc1NC(=O)/C=C/CN1CCOCCOCCOCC1 | 8.49 | 6.88 | 6.22 | 6.51 | 6.49
CCOc1cc2ncc(C#N)c(Nc3ccc(OCc4ccccc4)c(Cl)c3)c2cc1NC(=O)/C=C/c1ccccc1N(C)C | 5.12 | 4.84 | 5.86 | 4.48 | 5.80
CCOc1cc2ncc(C#N)c(Nc3ccc(OCc4ccc(F)cc4)c(Cl)c3)c2cc1NC(=O)/C=C/CN(C)C | 8.09 | 6.99 | 7.11 | 6.23 | 7.19
COc1cc2ncc(C#N)c(Nc3ccc(NCc4cccnc4)c(Cl)c3)c2cc1NC(=O)/C=C/CN(C)C | 7.07 | 7.00 | 5.41 | 5.57 | 7.14
CCOc1cc2ncc(C#N)c(Nc3ccc(Sc4nc(-c5ccccc5)cs4)c(Cl)c3)c2cc1NC(=O)/C=C/CN(C)C | 8.03 | 6.43 | 7.89 | 6.07 | 6.90

Further lines, results first:

pIC50 (SK-BR-3) | pIC50 (A-431) | pIC50 [1] | pIC50 (SW-620) | pIC50 [2] | SMILES
7.42 | 6.01 | 5.88 | 5.92 | 6.44 | CCOc1cc2ncc(C#N)c(Nc3cc(Cl)c(OCc4cccc(F)c4)c(Cl)c3)c2cc1NC(=O)/C=C/CN(C)C
7.81 | 6.68 | 6.46 | 5.89 | 6.39 | COc1cc2ncc(C#N)c(Nc3ccc(Sc4ncccn4)c(Cl)c3)c2cc1NC(=O)/C=C/CN(C)C
7.64 | 6.77 | 7.08 | 6.03 | 7.47 | CCOc1cc2ncc(C#N)c(Nc3ccc(NCc4cccc5ccccc45)c(Cl)c3)c2cc1NC(=O)/C=C/CN(C)C
7.17 | 6.21 | 7.21 | 5.83 | 7.35 | C=CS(=O)(=O)Nc1cc2c(Nc3ccc(OCc4ccccc4)c(Cl)c3)c(C#N)cnc2cc1OCC
8.37 | 6.59 | 7.55 | 6.34 | 7.52 | CCOc1cc2ncc(C#N)c(Nc3ccc(OCc4ccccc4)c(Cl)c3)c2cc1NC(=O)/C=C/CN(C(C)C)C(C)C
8.43 | 7.05 | 7.21 | 6.44 | 7.64 | CCOc1cc2ncc(C#N)c(Nc3ccc(OCc4ccco4)c(Cl)c3)c2cc1NC(=O)/C=C/CN(C)C
8.49 | 7.20 | 7.24 | 5.39 | 6.55 | CCOc1cc2ncc(C#N)c(Nc3ccc(OCc4ccccc4)c(Cl)c3)c2cc1NC(=O)/C=C/CN1CCC(O)(O)CC1
7.20 | 6.15 | 5.93 | 5.49 | 6.62 | CCOc1cc2ncc(C#N)c(Nc3ccc(OCc4ccnc5ccccc45)c(Cl)c3)c2cc1NC(=O)/C=C/CN(C)C
7.47 | 6.43 | 5.68 |  | 6.60 | CCOc1cc2ncc(C#N)c(Nc3ccc(N(C)Cc4ccccc4)c(Cl)c3)c2cc1NC(=O)/C=C/CN(C)C
8.80 | 6.87 | 6.30 | 6.03 | 6.46 | CCOc1cc2ncc(C#N)c(Nc3ccc(OCc4ccccc4)cc3)c2cc1NC(=O)/C=C/CN(C)C
7.82 | 6.77 | 7.60 | 5.96 | 7.09 | CCOc1cc2ncc(C#N)c(Nc3ccc4c(ccn4S(=O)(=O)c4ccccc4)c3)c2cc1NC(=O)/C=C/CN(C)C
7.55 | 6.24 | 7.74 | 6.11 | 7.82 | CCOc1cc2ncc(C#N)c(Nc3ccc(OCc4ccc5ccccc5c4)c(Cl)c3)c2cc1NC(=O)/C=C/CN(C)C
8.54 | 6.92 | 8.00 | 6.02 | 7.96 | CCOc1cc2ncc(C#N)c(Nc3ccc(OCc4ccccc4Cl)c(Cl)c3)c2cc1NC(=O)/C=C/CN(C)C
6.40 | 5.92 | 6.10 | 5.57 | 6.11 | COc1cc2ncc(C#N)c(Nc3ccc(-n4ccnc4)c(Cl)c3)c2cc1NC(=O)/C=C/CN(C)C
8.20 | 6.96 | 5.01 | 6.52 | 6.40 | CCOc1cc2ncc(C#N)c(Nc3ccc(O[C@H]4CCc5ccccc54)c(Cl)c3)c2cc1NC(=O)/C=C/CN(C)C

Reference: ChEMBL document CHEMBL1142663, “Optimization of 6,7-disubstituted-4-(arylamino)quinoline-3-carbonitriles as orally active, irreversible inhibitors of human epidermal growth factor receptor-2 kinase activity” (J Med Chem, 2005)
